# Assays:
# [1] = target: T1, hamster SUR1 (Cricetus cricetus, UniProt Q09427); assay: Competitive binding to sulfonylurea and KCO sites of SUR1 ([3H]glibenclamide displacement, COS-cell membranes); details: SUR1 versus SUR2 selectivity, in words
# T1 construct: expressed in transfected cells; host or cells: COS-1 cells, transient transfection (pcDNA vector), membrane preparation
# Procedure: Competitive binding experiments were performed to characterize the affinity of the test compounds for the binding sites for sulfonylureas and KATP channel openers (=KCOs) on hamster SUR1. To assess the affinity for the sulfonylurea site membranes from COS-cells transiently expressing hamster SUR1 were incubated in the presence of [^3H]glibenclamide with increasing concentrations of test compounds. […] Per curve 9-15 distinct concentrations were tested covering the relevant range. All measurements were repeated at least 5 times in independent experiments.
# [^3H]glibenclamide (specific activity 51 Ci mmol^−1) was obtained from NEN (Dreieich, Germany). If suitable, stock solutions were prepared in dimethylsulfoxide with a final solvent concentration in the media below 1%.
# SUR- or Kir6.x isoforms were used either subcloned in the pcDNA (hamster SUR1, mouse Kir6.2) or pCMV vector (rat SUR2A, SUR2B).
# For transfection the cells were incubated 4 hours in a Tris-buffered salt solution containing DNA (5-10 μg/ml) plus DEAE-dextran (1 mg/ml), 2 min in HEPES-buffered salt solution plus dimethylsulfoxide (10%) and 4 hours in DMEM-HG plus chloroquine (100 μM). Cells were then returned to DMEM-HG plus 10% FCS. […] For binding experiments resuspended membranes (final protein concentration 5-50 μg/ml) were incubated in “Tris-buffer” (50 mM, pH 7.4) containing either [^3H]glibenclamide (final concentration 0.3 nM or 3 nM and nonspecific binding defined by 100 nM or 1 μM glibenclamide for SUR1 or SUR2Y1205S-isoforms, respectively) or [^3H]P1075 (final concentration 3 nM, nonspecific binding defined by 100 μM pinacidil) and increasing concentrations of the test compounds. […] Incubations were carried out for 1 h at room temperature and were terminated by rapid filtration through Whatman GF/B filters.
# The inhibition constant (Ki value) of the test substances was calculated from the respective IC50 value, and was stated as the negative logarithmised value thereof (pKi).
# [2] = test system: rat perifused pancreatic islets; assay: Insulin secretion in rat perifused pancreatic islets, simple screen at 11 mM glucose; type: cell-based; details: for effect on insulin secretion: 0-30 and 30-60 min
# Procedure: (§1) Animals: Male Wistar rats in the weight range 175-200 g were group housed in standard animal cages at a temperature of 21±2° C. and humidity of 55±10%. Animals were maintained on a 12 h light-dark cycle (lights on 06.00-18.00 h) with free access to standard rodent diet (B&K Universal Ltd standard rat and mouse diet (BK 001P), Beekay Feeds, B&K Universal Ltd, Hull, East Riding of Yorkshire) and tap water. The rats were accustomed to these conditions for at least one week before experimentation.
# (§2) Experimental procedures: After the rats were sacrificed, the branch of the bile duct leading to the liver and the duodenal end of the duct in the pancreas were clamped and the pancreas distended by injection of ice-cold 0.9 mg/ml collagenase solution into the bile duct. The pancreas were then removed and incubated statically for 10-12 min at 37° C. Following the incubation, 10 ml of cold buffer was added and the suspension shaken vigorously by hand for 1 min. The islets were allowed to settle for 5 min on ice and washed three times using ice-cold buffer. Well formed and good sized islets from 3 rats were hand-picked (under a low power microscope) and pooled and a final selection of islet transferred to the perifusion apparatus. Oxygenated (95% O2/5% CO2) Gey & Gey buffer containing 1 mg/ml bovine serum albumin and 4 mM glucose were used throughout the experiment unless otherwise stated (see Dickinson et al. Eur J Pharmacol 1997;339:69-76 for further details).
# (§3) On each day, two experiments were performed in parallel in 2 identical, independent sets of perifusion apparatus each consisting of sufficient number of chambers. Each chamber was loaded with 20 hand-picked islets. Islets were perifused for an initial 30 min period in media containing 4 mM glucose. Perifusate was then collected at 2 min intervals for the remainder of the experiment.
# Perifusate samples were then pooled to create 3 samples per chamber as follows: Baseline (4 mM): Samples 1-5 (first 10 minutes); 0-30 minutes (11 mM glucose): Samples 6-21; 30-60 minutes (11 mM glucose): Samples 22-36.
# Perifusate fractions were stored at −75° C. until required for insulin assay. Insulin content of fractions were assayed using a 96-well ELISA assay (Mercodia). Initial insulin assays were performed in triplicate on three pooled fractions from each chamber (18 samples per experiment, 108 samples in total for 6 experiments).
# [3] = test system: glucose-stimulated insulin release; assay: Inhibition of glucose-stimulated insulin release (NN-414 versus diazoxide); type: cell-based
# [4] = test system: rat perifused pancreatic islets; assay: Insulin secretion in rat perifused pancreatic islets, in depth investigation (Phase 1 and Phase 2); type: cell-based
# Procedure: as §1, with “001 P),” for “001P),”
# as §2, with “procedures: Three rats (sufficient for” for “procedures: After”, “the isolation of enough islets to allow for 2 perifusion experiments per day)” for “the rats”
# as §3, with “was” for “was then”, “experiment. After the first 10 min of the experiment (to collect baseline insulin values), the media in each chamber were switched to one containing the relevant drug concentration/vehicle/glucose concentration and perifusate collected for a further 62 min to produce a total of 36 fractions for each chamber.” for “experiment.”
# Experiments were organised to evaluate firstly (Phase I) the effect of Compounds at a single concentration on glucose-stimulated insulin secretion (two independent sets of experiments) and secondly (Phase II), determination of the dose-dependent effect of these compounds to inhibit insulin secretion at 11 mM glucose (three independent sets of experiments).
# Perifusate fractions were stored at −75° C. until required for insulin assay. Insulin content of fractions were assayed using a 96-well ELISA assay (Mercodia). Initial insulin assays were performed on only every third fraction (72 assays per experiment).
# [5] = test system: male sugar rats [Ico: ZUCKER-fa/fa (fatty)]; assay: 2 week chronic administration: body weight gain in male sugar rats (ZUCKER-fa/fa); type: in vivo, rat; details: for decrease of body weight in comparison to vehicle-treated rats: day 14
# Procedure: Studies were performed in male sugar rats [[Ico: ZUCKER-fa/fa (fatty) (Orl] (Charles River France) weighing initially 400 to 490 g. Animals were housed two or three in a plastic cage in a temperature (20-24° C.), relative humidity (45-65%) and 12-h light/dark cycle (light 7:00 a.m. to 7:00 p.m.)—controlled room for 6 days before being used. All animals had free access to filtered tap water and standard pelleted laboratory chow (U.A.R., Villemois-son-sur-Orge, France). Animals were individually identified on the tail.
# At the end of the acclimatization period, animals were individually housed in wire-topped plastic cages. A pre-weighed quantity of food and water were placed on the roof grids. Each rat was acclimated to the handling and dosing procedure the 3 days preceding the start of treatment. Water and food intake was measured during the 24 h that followed dosing procedure to establish baseline food and water intake for each animal. Thereafter, the rats were randomly assigned to either vehicle or drug treatment groups.
# Between 9:00-10:00 a.m. on the day of study, the animals were injected p.o. with either vehicle or differing doses of test compounds in a volume of 2 ml/kg each day for 14 consecutive days. During the 5-day post-treatment period, vehicle was given to all groups.
# Daily food and water intake was determined per cage throughout the 14-day treatment period and the 5-day post-treatment period. Individual body weights were checked daily for the subsequent treatment and post-treatment periods. Data were collected before each dosing procedure.
# T1 sequence (Q09427 whole entry): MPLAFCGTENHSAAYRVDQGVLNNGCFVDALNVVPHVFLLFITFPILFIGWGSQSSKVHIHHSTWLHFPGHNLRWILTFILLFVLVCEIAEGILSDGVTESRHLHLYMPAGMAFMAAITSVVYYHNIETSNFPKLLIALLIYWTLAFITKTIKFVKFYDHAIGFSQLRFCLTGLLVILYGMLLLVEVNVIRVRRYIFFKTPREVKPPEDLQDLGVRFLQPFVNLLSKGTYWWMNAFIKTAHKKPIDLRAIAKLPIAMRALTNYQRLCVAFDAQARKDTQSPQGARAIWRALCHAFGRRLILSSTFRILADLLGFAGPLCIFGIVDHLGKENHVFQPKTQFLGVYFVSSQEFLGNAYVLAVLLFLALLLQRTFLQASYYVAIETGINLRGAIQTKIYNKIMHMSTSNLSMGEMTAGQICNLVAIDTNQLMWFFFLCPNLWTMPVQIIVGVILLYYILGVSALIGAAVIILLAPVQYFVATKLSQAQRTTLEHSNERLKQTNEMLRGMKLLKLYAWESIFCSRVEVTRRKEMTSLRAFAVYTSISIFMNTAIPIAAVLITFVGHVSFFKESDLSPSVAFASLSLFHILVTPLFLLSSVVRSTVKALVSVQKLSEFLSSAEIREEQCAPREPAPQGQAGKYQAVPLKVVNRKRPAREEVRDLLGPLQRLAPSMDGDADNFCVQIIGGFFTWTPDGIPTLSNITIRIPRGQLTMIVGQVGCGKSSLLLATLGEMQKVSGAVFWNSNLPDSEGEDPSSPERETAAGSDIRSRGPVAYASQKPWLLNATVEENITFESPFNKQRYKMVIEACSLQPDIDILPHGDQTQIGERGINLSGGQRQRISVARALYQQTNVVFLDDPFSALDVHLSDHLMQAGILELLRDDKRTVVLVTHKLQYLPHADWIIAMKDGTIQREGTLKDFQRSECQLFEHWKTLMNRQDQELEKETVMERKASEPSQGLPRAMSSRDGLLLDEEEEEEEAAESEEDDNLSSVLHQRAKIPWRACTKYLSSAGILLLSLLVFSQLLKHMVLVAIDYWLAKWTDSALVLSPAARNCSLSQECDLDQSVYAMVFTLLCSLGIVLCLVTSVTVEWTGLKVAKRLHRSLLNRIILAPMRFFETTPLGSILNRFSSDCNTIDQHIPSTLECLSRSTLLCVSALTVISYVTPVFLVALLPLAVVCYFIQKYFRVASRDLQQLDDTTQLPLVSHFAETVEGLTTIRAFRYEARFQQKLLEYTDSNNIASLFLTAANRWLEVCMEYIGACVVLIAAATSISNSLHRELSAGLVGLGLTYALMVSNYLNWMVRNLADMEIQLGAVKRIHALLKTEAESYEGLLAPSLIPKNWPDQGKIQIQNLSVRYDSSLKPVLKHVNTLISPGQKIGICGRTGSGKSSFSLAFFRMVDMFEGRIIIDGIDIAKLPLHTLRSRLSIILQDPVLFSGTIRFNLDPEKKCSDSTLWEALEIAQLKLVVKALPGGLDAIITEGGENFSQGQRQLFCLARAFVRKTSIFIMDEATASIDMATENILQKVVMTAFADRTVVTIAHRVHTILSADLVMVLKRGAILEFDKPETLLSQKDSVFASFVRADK
structure (smiles),measurement,setting,value
"CN[C@@H](Cc1c[nH]c2ccccc12)C(=O)N1CC(c2ccccc2)C(c2ccc(Cl)cc2)=N1 (stereo partly drawn) [Compound 1, (2S)-1-[3-(4-chlorophenyl)-4-phenyl-4,5-dihydro-1H-pyrazol-1-yl]-3-(1H-indol-3-yl)-N-methyl-1-oxopropan-2-amine]",pki (SUR1) compared with pki (SUR2),[1],pki (SUR1) larger than pki (SUR2)
same,effect on insulin secretion,[2],significantly inhibited insulin secretion
CC1(NC2=Nc3cc(Cl)sc3S(=O)(=O)N2)CC1 [NN-414],potency to inhibit glucose-stimulated insulin release relative to diazoxide,[3],100 times
"CC1=NS(=O)(=O)c2cc(Cl)ccc2N1 [Diazoxide, diazoxide, reference compound]",effect on time-dependent insulin secretion,"[4]; Phase 2, 11 mM glucose, 10 μM",only a partial inhibition
same,reduction of mean insulin secretion,"[4]; Phase 2, 11 mM glucose, 10 μM",50%
same,effect on time-dependent insulin secretion,"[4]; Phase 2, 11 mM glucose, 100 μM",almost completely blocked the stimulatory effect of 11 mM glucose
same,reduction of mean insulin secretion,"[4]; Phase 2, 11 mM glucose, 100 μM",94%
"CNC(=NS(=O)(=O)c1ccc(C(F)(F)F)cc1)N1CC(c2cccnc2)C(c2ccc(Cl)cc2)=N1 (stereo not drawn) [Compound 4, 3-(4-chlorophenyl)-N-methyl-4-pyridin-3-yl-N′-{[4-(trifluoromethyl)phenyl]sulfonyl}-4,5-dihydro-1H-pyrazole-1-carboximidamide]",pki (SUR1) compared with pki (SUR2),[1],pki (SUR1) larger than pki (SUR2)
same,amount of inhibition of insulin secretion compared with diazoxide,[2],notably greater than diazoxide at 30-60 min
same,effect on insulin secretion,[2],significantly inhibited insulin secretion at both 0-30 and 30-60 min
"CN(C)CCNC(=NS(=O)(=O)N1CCCCC1)N1CC(c2ccccc2)C(c2ccc(Cl)cc2)=N1 (stereo not drawn) [Compound 2, 3-(4-chlorophenyl)-N-[2-(dimethylamino)ethyl]-4-phenyl-N′-(piperidin-1-ylsulfonyl)-4,5-dihydro-1H-pyrazole-1-carboximidamide]",effect on insulin secretion,[2],significantly inhibited insulin secretion (only at 0-30 min for compound 2)
"CNC(=NS(=O)(=O)N1CCCCC1)N1C[C@H](c2ccccc2)C(c2ccc(Cl)cc2)=N1 [Compound 3, (4S)-3-(4-chlorophenyl)-N-methyl-4-phenyl-N′-(piperidin-1-ylsulfonyl)-4,5-dihydro-1H-pyrazole-1-carboximidamide]",amount of inhibition of insulin secretion compared with diazoxide,[2],notably greater than diazoxide at 30-60 min
same,effect on insulin secretion,[2],significantly inhibited insulin secretion at both 0-30 and 30-60 min
"CNC(=NS(=O)(=O)c1ccc(Cl)cc1)N1C[C@H](c2ccccc2)C(c2ccc(Cl)cc2)=N1 [Compound A, (4S)-3-(4-chlorophenyl)-N′-[(4-chlorophenyl)sulfonyl]-N-methyl-4-phenyl-4,5-dihydro-1H-pyrazole-1-carboximidamide]",pki (SUR1) compared with pki (SUR2),[1],pki (SUR1) larger than pki (SUR2)
same,decrease of body weight in comparison to vehicle-treated rats,[5]; 3 mg/kg p.o. daily,5.3%
same,decrease of body weight in comparison to vehicle-treated rats,[5]; 10 mg/kg p.o. daily,6.7%
same,decrease of body weight in comparison to vehicle-treated rats,[5]; 30 mg/kg p.o. daily,5.9%
same,effect on body weight during treatment,"[5]; 3, 10 and 30 mg/kg p.o., 14 days",sustained non dose-dependent reduction in body weight at all doses administered
same,body weight on interruption of drug treatment,[5]; 5-day post-treatment period,progressively returned towards control levels
same,effect on insulin secretion at 4 mM glucose,"[4]; Phase 1, 10 μM, 4 mM glucose",no effect of compound A on insulin secretion at 4 mM glucose in two experiments and a slight effect to stimulate insulin secretion in one experiment
same,effect on insulin secretion at 8 mM glucose,"[4]; Phase 1, 10 μM, 8 mM glucose",completely inhibited insulin secretion at 8 mM glucose in two of the experiments and moderately inhibited insulin secretion in the third experiment
same,effect on insulin secretion at 16 mM glucose,"[4]; Phase 1, 10 μM, 16 mM glucose",moderate effect to inhibit insulin secretion in one experiment but only a slight effect in the other experiment
same,dose dependency of effect on mean insulin secretion,"[4]; Phase 2, 11 mM glucose",dose-dependent effects to inhibit mean insulin secretion
same,doses at which inhibition of mean insulin secretion attained statistical significance,"[4]; Phase 2, 11 mM glucose",3 µM and 10 µM
same,effect on time-dependent insulin secretion,"[4]; Phase 2, 11 mM glucose, 10 μM",clearly more effective than the comparable (10 μM) dose of diazoxide
same,reduction of mean insulin secretion,"[4]; Phase 2, 11 mM glucose, 10 μM",74%
same,dose dependency of effect on time-dependent insulin secretion,"[4]; Phase 2, 11 mM glucose, four doses",dose-dependent effects to block insulin secretion
